Results: US20260240974A1, “A T[…] VACCINE BASED ON VALIDATED TARGET EPITOPES” (Deutsches Krebsforschungszentrum Stiftung des öffentlichen …, priority 2023, published 2026)
Like-named read-outs stand apart in the source and are kept apart here.

Key:
[1] = tested on: short-term antigen-specific T cell lines generated from PBMCs; parameters: key: +: ELISPOT: Immungenicity of the peptide shown by IFN-gamma ELISPOT analysis; details: immunogenicity by IFN-gamma ELISPOT, * data from published resources, cited from earlier work
[2] = tested on: HPV16-positive cells; experiment: HLA immunoprecipitation and LC-MS of peptides presented by HPV16-positive cells; format: cell-based, human; parameters: key: +: presentation: HLA-presentation of the peptide by HPV16-positive cells shown by MS; details: HLA-presentation by HPV16-positive cells shown by MS
Experimental: HLA immunoprecipitation (IP) was performed according to previously published protocols (Bassani-Sternberg et al., 2016; Chong et al., 2018). Briefly, HPV16+ cells were lysed with a lysis buffer containing 1% N-octyl-β-D glucopyranoside, 0.25% Na-Deoxycholate, protease inhibitor cocktail (Sigma-Aldrich, Mannheim, Germany)/PMSF (Carl Roth, Karlsruhe, Germany) in PBS. After centrifugation at 40,000×g, 4° C., for 30 min. HLA-peptide complexes were immuno-precipitated by incubation with mouse anti-human HLA-A,B,C monoclonal antibody (clone W6/32, Biolegend, San Diego, CA, USA) or in some cases HLA-type-specific antibody (HLA-A2: clone BB7.2, HLA-A3: clone GAP A3, HLA-A11/A24: clone Hb 164, HLA-B7: clone BB7.1) crosslinked to protein G Sepharose beads (Cytiva, Marlborough, MA, USA) or Protein A—Sepharose™ 4B (Invitrogen Corporation, Camarillo, CA, USA) for 4 h at 4° C. under constant mixing on a rotating wheel. Supernatant was discarded after centrifugation at 3200×g, for 3 min at RT. Pelleted HLA-peptide complexes bound to antibody-beads were washed 3 times in each of the following steps: first with ice-cold 20 mM Tris-HCl pH 8 containing 150 mM NaCl followed by the same buffer but with additional […] and finally with 20 mM Tris-HCl alone. Peptides were eluted from antibody-beads bound to HLA by 0.3% TFA. Resulting peptides were desalted by reverse-phase purification using a SepPak 96-well plate (Waters, Milford, MA, USA). Peptides eluted in 28% ACN in 0.1% TFA were dried by vacuum centrifugation (Concentrator plus, Eppendorf, Hamburg, Germany).
The set of predicted target peptides were acquired as stable isotope labelled (SIL) peptides from commercial suppliers (crude synthesis product; isotope purity >99 atom % ^13C and ^15N). First, analysis by direct infusion was performed in order to optimize normalized collision energy (NCE) for each single peptide in a mixture. NCE values were ranging from 4% to 42% and each value, in 2% steps, was measured 4 times for four charge states (1+ to 4+) of each peptide. Orbitrap Exploris 480 (Thermo Fisher Scientific) in targeted MS2 scan (PRM) was operated using 30K resolution at 200 m/z, standard automated gain control (AGC) target, 350 ms maximum injection time (IT), 1 micro scan in centroid data acquisition mode. For all measurements, isolation window was 0.4, 0.7, 1 or 1.5 m/z, depending on the mass of the precursor, as recommended by the manufacturer. Ion chromatograms of all expected transitions were extracted with 12 ppm mass tolerance from the centroided spectra and deconvoluted using purpose-made R scripts. The best NCE value was selected so that the intensity of any 5th most intense transitions is maximized, thereby maximizing the chance of detecting at least 5 transitions. The retention time (RT) for each peptide was determined by LC-MS in DDA mode with an inclusion list of target peptides in all four charge-states. The MS resolution was set to 120K, 3e6 AGC target, 50 ms maximum IT and the LC operated as described below.
For LC-MS, samples were dissolved in 2.5 to 5 μl of 5% ACN in 0.1% TFA with 50 fmol of Peptide Retention Time Calibration (PRTC) Mixture (88321, Pierce™) spiked in, followed by 3 min bath sonication. All samples were analysed by liquid chromatography (U-3000, Thermo Fisher Scientific) coupled to Orbitrap Exploris 480 (Thermo Fisher Scientific). […]

[3] = tested on: HPV16-positive cells; parameters: key: +: presentation: HLA-presentation of the peptide by HPV16-positive cells shown by MS; details: HLA-presentation by HPV16-positive cells shown by MS; * data from published resources; cited from earlier work
[4] = tested on: short-term antigen-specific T cell lines generated from PBMCs; experiment: Interferon-γ ELISpot assay on short-term peptide-specific T cell lines from PBMCs; format: cell-based, human; parameters: key: +: ELISPOT: Immungenicity of the peptide shown by IFN-gamma ELISPOT analysis; details: immunogenicity by IFN-gamma ELISPOT

For “1 (ISEYRHYCY; Human papillomavirus 16) [compound 1]”, the ELISpot [1] is given as “+*” and the presentation [2] is given as “+”.
In the case of “2 (YMLDLQPET; Human papillomavirus 16) [compound 2]”, the ELISpot [1] is listed as “+*” and the presentation [3] is listed as “+*”.
With “3 (TTLEQQYNK; Human papillomavirus 16) [compound 3]” the ELISpot [4] was “+” and the presentation [2] was “+”.
In the case of “4 (RAHYNIVTF; Human papillomavirus 16) [compound 4]”, the ELISpot ([4]; B15) is listed as “+(B15)”, the ELISpot ([1]; B07) is listed as “+*(B07)” and the presentation [2] is listed as “+”.
For “5 (RPRKLPQL; Human papillomavirus 16) [compound 5]”, the ELISpot [4] was “+” and the presentation [2] was “+”.
In the case of “6 (LQPETTDLY; Human papillomavirus 16) [compound 6]”, the ELISpot [1] is listed as “+*” and the presentation [2] is listed as “+”.
